Measured values published in patent publication US20220202811A1, “TREATMENT FOR RETINOIC ACID RECEPTOR-RELATED ORPHAN RECEPTOR Ɣ (RORƔ)-DEPENDENT CANCERS” (The Regents of the University of California, priority 2019, published 2022).
Entries after “also recorded” stand apart in the source; their conditions may differ.

Experiments:
[1] = system: primary patient derived xenografts; experiment: primary patient derived xenografts, SR2211; conditions: human
Method: Subcutaneous tumor dimensions were measured with calipers 1-2× weekly.

[2] = system: autochthonous tumor-bearing KP^f/fC mice; experiment: autochthonous KP^f/fC survival study
[3] = system: organoids derived from acinar tumors; experiment: acinar tumor organoids (Msi2-Cre^ER/LSL-Myc); type: cell-based, mouse
Excerpt: A new Msi2-Cre^ER mouse model of aggressive pancreatic cancer was created, in which Cre is driven off of the Msi2 promoter and can be conditionally triggered by tamoxifen delivery. This Msi2-Cre^ER driver can be crossed into mice bearing distinct mutations such as Ras (leading to myeloproliferative neoplasia), p53, or Myc. When the Msi2-Cre^ER driver was crossed into an LSL-MyC^T58A model developed by Dr. Robert Wechsler-Reya at SBP/Rady, La Jolla, Calif. (Mollaoglu et al., 2017) (FIG. 79), it produced multiple cancer types including small cell lung cancer, choroid plexus tumors, and early stage kidney tumors.

[4] = system: primary patient-derived PDX1356 organoids; experiment: PDX1356 organoid assay; type: cell-based, human
Method: PDX1535 organoids were derived from a patient of pancreatic cancer. Primary patient organoids were established by digesting patient-derived xenografts for 1 hour at 37° C. in RPMI containing 2.5% FBS, 5 mg/ml Collagenase II, and 1.25 mg/ml Dispase II, followed by passage through a […] mesh filter. Cells were plated at a density of 1.5×10^5 cells per 50 μl Matrigel. After domes were solidified, growth medium was added as follows: RPMI containing 50% Wnt3a conditioned media, 10% RSpondin1-conditioned media, 2.5% FBS, 50 ng/ml EGF, 5 mg/ml Insulin, 12.5 ng/ml hydrocortisone, and 14 μM Rho Kinase Inhibitor. After establishment, organoids were passaged and maintained. Briefly, organoids were isolated using Cell Recovery Solution (Corning 354253), then dissociated into single cell suspension with TrypLE Express (ThermoFisher 12604) supplemented with 25 μg/ml DNase I (Roche) and 14 μM Rho Kinase Inhibitor (Y-27632, Sigma). Cells were split 1:2 into 20 μl domes plated on pre-warmed 48-well plates. Domes were incubated at 37° C. for 5 min, then covered with human complete organoid feeding media without Wnt3a-conditioned media.
As shown in FIGS. 65-66, the anti-cancer effect of JTE-151 was also tested using the organoid assay on primary patient-derived PDX1356 pancreatic cancer cells. […] The volume of organoids was expressed as relative to control.

PDX1356 xenografts = PDX1356 xenografts in mice; type: in vivo, human
Excerpt: Finally, the impact of JTE-151 was examined in vivo on mice bearing primary patient-derived pancreatic cancer xenografts (FIGS. 70-78). […] FIGS. 70-72 show 3 rounds of treatment in an experiment using mice bearing PDX1356 xenographs. The horizontal axis of the first panel in each of FIGS. 70-72 represents days of treatment, and the vertical axis represents tumor volume. The horizontal axis of each of the remaining panels represents the target (vehicle vs. JTE-151 mouse), and the vertical axis represents the specified measurement. JTE-151 was given at the regimen as specified in the figures. For example, in the first round (FIG. 70), JTE-151 was given at 90 mg/kg body weight once per day for the first 25 days, then twice per day from day 26 though day 40.

[5] = system: primary patient-derived PDX202 pancreatic cancer cells; experiment: PDX202 organoid assay; type: cell-based, human; conditions: 3 μM JTE-151 alone
Method: (§1) Moreover, the anti-cancer effect of JTE-151 was determined in an organoid assay using pancreatic cancer cells derived from mice bearing primary patient-derived xenografts.

[6] = system: primary patient-derived PDX204 pancreatic cancer cells; experiment: PDX204 organoid assay; type: cell-based, human
Method: as §1

IL-17 = experiment: circulating IL-17 level in tumor-bearing KP^f/fC mice; type: in vivo, mouse; conditions: 120 mg/kg JTE-151 regimen, responding mice (FIGS. 59-60)
Method: Similarly, the anti-cancer effect of JTE-151 was tested on tumor-bearing KP^f/fC mice in vivo at a higher dose of 120 mg/kg (FIGS. 59-61 showing three individual experiments). For each experiment, one mouse was given vehicle treatment, and another mouse was given the JTE-151 regimen as specified in the figures. For example, in FIG. 59, the JTE-151 mouse received 120 mg/kg body weight of JTE-151 for 2 weeks and then 90 mg/kg JTE-151 for 1 week. In the first 1.5 weeks, JTE-151 was given once daily, and in the second 1.5 weeks, JTE-151 was given twice daily. […] In each of FIGS. 59-61, the horizontal axis of each graph represents the target (vehicle vs. JTE-151 mouse), and the vertical axis represents the specified measurement.

[7] = first round: JTE-151 90 mg/kg once per day for 25 days, then twice per day to day 40
[8] = third round: JTE-151 90 mg/kg once per day

OC(c1ccc(-c2ccc(CN3CCN(Cc4ccncc4)CC3)cc2)c(F)c1)(C(F)(F)F)C(F)(F)F [SR2211]
tumor growth in vivo [1]: marked reduction
mice alive ([2]; 25 days after the initiation of treatment): 75%
mice alive ([2]; 45 days after treatment initiation): 50%
Hazard ratio ([2]; SR2211 vs vehicle): 0.16
median survival ([2]; treated daily from 8 weeks of age until moribund): 38.5 days
decreased risk of death ([2]; vs vehicle): 6 fold
organoid growth ([3]; 3 μM or 6 μM SR2211): significantly reduced
sensitivity of organoids ([3]; acinar tumors): sensitive

CC(=O)N1Cc2cc(S(C)(=O)=O)ccc2[C@@H]1C(=O)Nc1ccc(C(O)(C(F)(F)F)C(F)(F)F)cc1 [AZD-0284]
organoid volume ([4]; 3 μM AZD-0284 + 0.05 nM gemcitabine): significant reduction; also recorded: effectively inhibited
organoid volume ([4]; 3 μM AZD-0284 alone): significant reduction; also recorded: effectively inhibited
organoid volume ([4]; 6 μM AZD-0284 + 0.05 nM gemcitabine): significant reduction; also recorded: effectively inhibited
organoid volume ([4]; 6 μM AZD-0284 alone): significant reduction; also recorded: effectively inhibited

Cc1ccc(NC(=O)C[C@H](CCC(=O)O)c2noc([C@H]3C[C@@H](CC(C)(C)C)C3)c2C2CC2)c(Cl)c1 [JTE-151, (4S)-6-[(2-chloro-4-methylphenyl)amino]-4-{4-cyclopropyl-5-[cis-3-(2,2-dimethylpropyl)cyclobutyl]isoxazol-3-yl}-6-oxohexanoic acid]
organoid growth in volume ([4]; 0.3 μM JTE-151 + 0.05 nM gemcitabine): visibly decreased; also recorded: inhibited
organoid growth in volume ([4]; 0.3 μM JTE-151 alone): visibly decreased; also recorded: inhibited
organoid volume ([4]; 3 μM JTE-151 + 0.05 nM gemcitabine): visibly reduced; also recorded: inhibited
organoid volume ([4]; 3 μM JTE-151 alone): visibly reduced; also recorded: inhibited
tumor growth rate (PDX1356 xenografts; 3 experiments, slope compared to control (FIG. 73)): generally slower
EpCam+ tumor epithelial cells (PDX1356 xenografts; [7]): lower
EpCam+/CD133+ tumor stem cells (PDX1356 xenografts; [7]): lower
cell count (PDX1356 xenografts; [7]): decreased
tumor growth (PDX1356 xenografts; [7]): reduced
EpCam+ tumor epithelial cells (PDX1356 xenografts; [8]): reduced
EpCam+/CD133+ tumor stem cells (PDX1356 xenografts; [8]): reduced
organoid growth [5]: inhibited
organoid growth ([6]; 3 μM JTE-151 alone): inhibited
organoid growth ([6]; 3 μM JTE-151 in combination with 0.05 nM gemcitabine): inhibited
circulating IL-17 levels (IL-17): decrease
